Measurements: PubChem BioAssay (NCI)
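Following 48 hours of exposure in 96-well plates, responses at five concentrations were used to interpolate endpoints linearly. TGI marks complete inhibition of growth.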

How the values were obtained:
Assay in all cases: inhibition of tumour cell growth, NCI panel, 48 h
[1] = system: A498 renal
[2] = system: ACHN renal
[3] = system: CCRF-CEM leukemia
[4] = system: MCF7 breast
[5] = system: PC-3 prostate
[6] = system: SF-539 CNS
[7] = system: SNB-19 CNS
[8] = system: SNB-75 CNS
[9] = system: SW-620 colon

Compound `O=C1c2ccccc2NC(=S)[C@@H]2CCCN12` has a TGI [1] of over 100 µM, a TGI [2] of over 100 µM and a TGI [3] of over 100 µM. For the same compound, the TGI [4] was over 100 µM, the TGI [5] was over 100 µM and the TGI [6] was over 100 µM. It also gave a TGI [7] of over 100 µM, a TGI [8] of over 100 µM and a TGI [9] of over 100 µM.

For `COc1ccc(CC2COc3cc(O)cc(O)c3C2=O)cc1O` (stereo not drawn), the TGI [1] was over 100 µM, the TGI [2] was over 100 µM and the TGI [3] was over 100 µM. It also gave a TGI [4] of over 100 µM, a TGI [5] of over 100 µM and a TGI [6] of 10.1 µM. The TGI [7] was over 100 µM, the TGI [8] was 6.98 µM and the TGI [9] was over 100 µM.

For `CC(=O)c1ccc2c(c1)CC1(C2)Cc2ccccc2C1=O` (stereo not drawn), the TGI [1] was over 100 µM, the TGI [2] was over 100 µM and the TGI [3] was over 100 µM. The TGI [4] was over 100 µM, the TGI [5] was over 100 µM and the TGI [6] was over 100 µM. It also gave a TGI [7] of over 100 µM, a TGI [8] of over 100 µM and a TGI [9] of over 100 µM.

In the case of `COC1CC(OC2CCC3(C)C(=CCC4C3C(OC(C)=O)C(OC(=O)CC(C)C)C3(C)C(C(C)=O)CCC43O)C2)OC(C)C1OC1CC(OC)C(OC2CC(OC)C(OC3OC(C)C(OC4OC(CO)C(O)C(O)C4O)C(OC)C3O)C(C)O2)C(C)O1` (stereo not drawn), the TGI [1] is reported as over 75 µM, the TGI [2] is reported as over 75 µM and the TGI [3] is reported as over 7.5 µM. For the same compound, the TGI [4] was over 75 µM, the TGI [5] was over 75 µM and the TGI [6] was over 75 µM. The TGI [7] was over 75 µM, the TGI [8] was over 75 µM and the TGI [9] was over 75 µM.

For `C[n+]1c(-c2ccc(/C=C/C=N\NC(=O)c3ccc(C(=O)N/N=C\C=C\c4ccc(-c5cn6ccccc6[n+]5C)cc4)cc3)cc2)cn2ccccc21`, the TGI [1] was over 100 µM, the TGI [2] was over 100 µM and the TGI [3] was over 58.2 µM. The TGI [4] was over 100 µM, the TGI [5] was over 100 µM and the TGI [6] was over 100 µM. The TGI [7] was over 100 µM, the TGI [8] was over 100 µM and the TGI [9] was over 100 µM.

`O=c1cc(-c2ccccc2)oc2c(-c3cc(Cl)cc4c(=O)cc(-c5ccccc5)oc34)cc(Cl)cc12` gave a TGI [1] of 56.7 µM, a TGI [2] of over 100 µM and a TGI [3] of 54.6 µM. For the same compound, the TGI [4] was over 100 µM, the TGI [5] was over 100 µM and the TGI [6] was 44.4 µM. The TGI [7] was over 100 µM, the TGI [8] was 94 µM and the TGI [9] was over 100 µM.

Compound `S=c1cc(-c2ccc3c(c2)OCO3)s[nH]1` has a TGI [1] of over 100 µM, a TGI [2] of over 100 µM and a TGI [3] of over 100 µM. It also gave a TGI [4] of over 100 µM, a TGI [5] of over 100 µM and a TGI [6] of over 100 µM. The TGI [7] was over 100 µM, the TGI [8] was over 100 µM and the TGI [9] was over 100 µM.

Compound `Cc1ccc(/C=C2\Cc3c(C)cc(C)cc3C2=O)c(C(=O)O)c1` has a TGI [1] of 84.1 µM, a TGI [2] of over 100 µM and a TGI [3] of over 100 µM. For the same compound, the TGI [4] was over 100 µM, the TGI [5] was over 100 µM and the TGI [6] was 46.2 µM. The TGI [7] was over 100 µM, the TGI [8] was over 100 µM and the TGI [9] was over 100 µM.

In the case of `CCOC(=O)c1cn2c(n1)sc1cc(Cl)cc(Cl)c12`, the TGI [1] is reported as over 100 µM, the TGI [2] is reported as over 100 µM and the TGI [3] is reported as over 100 µM. It also gave a TGI [4] of over 100 µM, a TGI [5] of over 100 µM and a TGI [6] of over 100 µM. It also gave a TGI [7] of over 100 µM, a TGI [8] of over 100 µM and a TGI [9] of over 100 µM.

Compound `NS(=O)(=O)c1cccc(NC(=S)NC(=O)Nc2ccc(Cl)c(Cl)c2)c1` has a TGI [1] of 26.3 µM, a TGI [2] of 48.7 µM and a TGI [3] of 78.1 µM. It also gave a TGI [4] of 37.1 µM, a TGI [5] of 41.2 µM and a TGI [6] of 38.1 µM. The TGI [7] was 58.2 µM, the TGI [8] was 54.9 µM and the TGI [9] was 37.9 µM.

Work on `COc1c(O)c2c(=O)cc(OC)c3c4c(OC)cc(=O)c5c(O)c(OC)c6c(c(c1C(C(C)O)C6C(C)O)c23)c54` (stereo not drawn) yielded a TGI [1] of 3.45 µM, a TGI [2] of 2.93 µM and a TGI [3] of 3.23 µM. For the same compound, the TGI [4] was 4.04 µM, the TGI [5] was 1.85 µM and the TGI [6] was 2.11 µM. For the same compound, the TGI [7] was 6.22 µM, the TGI [8] was 2.89 µM and the TGI [9] was 4.33 µM.

`COC(=O)C1(Cc2ccc3c(c2)CCC3)Cc2ccccc2C1` showed a TGI [1] of over 100 µM, a TGI [2] of over 100 µM and a TGI [3] of 30.8 µM. The TGI [4] was over 100 µM, the TGI [5] was over 100 µM and the TGI [6] was over 100 µM. The TGI [7] was over 100 µM, the TGI [8] was over 100 µM and the TGI [9] was over 100 µM.
